How the values were obtained:
[1] = target: T1, Melanocyte-stimulating hormone receptor (Homo sapiens, UniProt Q01726); test: Binding affinity to human MC1R
Melanocortin receptor 3 [2] = target: T2, Melanocortin receptor 3 (Homo sapiens, UniProt P41968); test: Binding affinity to human MC3R
Melanocortin receptor 4 [3] = target: T3, Melanocortin receptor 4 (Homo sapiens, UniProt P32245); test: Binding affinity to human MC4R
Melanocortin receptor 4 [4] = target: T3, Melanocortin receptor 4; test: Agonist activity at human MC4R; format: functional
[5] = target: T1, Melanocyte-stimulating hormone receptor; test: Agonist activity at human MC1R; format: functional
Melanocortin receptor 3 [6] = target: T2, Melanocortin receptor 3; test: Agonist activity at human MC3R; format: functional
[7] = target: Melanocortin receptor (M1 and M4) (Homo sapiens) (UniProt P32245+Q01726); test: Selectivity for human MC4R over MC1R; format: protein assay
[8] = target: Melanocortin receptor (M3 and M4) (Homo sapiens) (UniProt P32245+P41968); test: Selectivity for human MC4R over MC3R; format: protein assay

T2 sequence (P41968 whole entry): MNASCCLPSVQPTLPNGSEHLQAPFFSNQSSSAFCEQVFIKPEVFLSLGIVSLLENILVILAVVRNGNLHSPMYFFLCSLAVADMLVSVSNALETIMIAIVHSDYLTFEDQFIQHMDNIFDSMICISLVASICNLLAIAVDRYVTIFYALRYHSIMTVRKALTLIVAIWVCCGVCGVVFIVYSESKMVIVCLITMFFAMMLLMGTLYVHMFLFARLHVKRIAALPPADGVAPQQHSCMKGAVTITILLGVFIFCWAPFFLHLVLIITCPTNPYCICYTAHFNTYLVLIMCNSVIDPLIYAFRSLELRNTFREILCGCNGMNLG
T3 sequence (P32245 whole entry): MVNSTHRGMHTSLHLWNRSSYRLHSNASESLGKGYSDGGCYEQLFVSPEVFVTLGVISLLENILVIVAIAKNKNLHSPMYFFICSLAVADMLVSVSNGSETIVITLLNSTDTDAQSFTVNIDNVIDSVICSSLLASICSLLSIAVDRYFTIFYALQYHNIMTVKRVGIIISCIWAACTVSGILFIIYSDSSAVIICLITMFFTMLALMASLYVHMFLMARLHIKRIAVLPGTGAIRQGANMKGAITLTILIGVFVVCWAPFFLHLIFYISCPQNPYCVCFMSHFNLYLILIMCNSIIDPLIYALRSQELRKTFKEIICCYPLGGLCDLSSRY
T1 sequence (Q01726 whole entry): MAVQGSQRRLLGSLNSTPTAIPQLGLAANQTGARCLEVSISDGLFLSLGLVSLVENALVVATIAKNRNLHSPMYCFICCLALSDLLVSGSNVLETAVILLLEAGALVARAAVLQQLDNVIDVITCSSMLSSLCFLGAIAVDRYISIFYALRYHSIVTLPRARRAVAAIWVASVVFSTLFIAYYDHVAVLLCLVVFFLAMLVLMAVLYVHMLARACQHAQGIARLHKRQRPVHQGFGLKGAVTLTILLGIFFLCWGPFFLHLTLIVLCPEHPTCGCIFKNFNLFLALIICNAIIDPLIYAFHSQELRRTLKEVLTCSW

SMILES | Ki [1] | Ki (Melanocortin receptor 3 [2]) | Ki (Melanocortin receptor 4 [3]) | EC50 (Melanocortin receptor 4 [4]) | EC50 [5] | EC50 (Melanocortin receptor 3 [6]) | Selectivity ratio [7] | Selectivity ratio [8]
CNC(=O)[C@H](Cc1ccc2ccccc2c1)N1CCN(C(=O)[C@H](N)Cc2ccc(F)cc2)[C@@H](CCNC(N)=O)C1=O | 21700 nM | 6110 nM | 365 nM | 18 nM | – | – | – | –
CNC(=O)[C@H](Cc1ccc2ccccc2c1)N1CCN(C(=O)[C@H](N)Cc2ccc(F)cc2)[C@@H](CCCNC(N)=O)C1=O | 2130 nM | 461 nM | 261 nM | 12 nM | – | – | – | –
CNC(=O)[C@H](Cc1ccc2ccccc2c1)NC(=O)[C@H](CCCN=C(N)N)NC(=O)[C@H](N)Cc1ccc(F)cc1 | 4060 nM | 1140 nM | 225 nM | 140 nM | 21700 nM | 20000 nM | – | –
CNC(=O)[C@H](Cc1ccc2ccccc2c1)N1CCN(C(=O)[C@H](N)Cc2ccccc2)[C@@H](CCCN=C(N)N)C1=O | 659 nM | 239 nM | 5.7 nM | 1.7 nM | 526 nM | 41 nM | 116 | 42
CNC(=O)[C@H](Cc1ccc2ccccc2c1)N1CCN(C(=O)CCc2ccc(F)cc2)[C@@H](CCCN=C(N)N)C1=O | 958 nM | 206 nM | 5.3 nM | 9 nM | 1390 nM | 142 nM | – | –

Compounds with a lower Ki [1], results first:

Ki [1] | Ki (Melanocortin receptor 3 [2]) | Ki (Melanocortin receptor 4 [3]) | EC50 (Melanocortin receptor 4 [4]) | EC50 [5] | EC50 (Melanocortin receptor 3 [6]) | Selectivity ratio [7] | Selectivity ratio [8] | SMILES
366 nM | 75 nM | 7 nM | 1.6 nM | 317 nM | 37 nM | – | – | CNC(=O)[C@H](Cc1ccc2ccccc2c1)N1CCN(C(=O)[C@H](N)Cc2ccc(F)cc2)[C@@H](CCCN=C(N)N)C1=O
18 nM | 7 nM | 1.3 nM | 0.5 nM | 2.3 nM | 10 nM | – | – | CNC(=O)[C@H](Cc1ccc2ccccc2c1)N1CCN(C(=O)[C@@H](Cc2ccc(F)cc2)NC(C)=O)[C@@H](CCCN=C(N)N)C1=O
14 nM | 1.1 nM | 0.4 nM | 8.7 nM | 30 nM | 2 nM | – | – | CNC(=O)[C@H](Cc1ccc2ccccc2c1)N1CCN(C(=O)[C@@H](Cc2ccc(F)cc2)NC(=O)[C@H](Cc2ccc(O)cc2)NC(C)=O)[C@@H](CCCN=C(N)N)C1=O
0.4 nM | 1 nM | 0.8 nM | 0.3 nM | 0.07 nM | 0.4 nM | – | – | CNC(=O)[C@H](Cc1ccc2ccccc2c1)N1CCN(C(=O)[C@@H](Cc2ccccc2)NC(=O)[C@H](Cc2c[nH]cn2)NC(C)=O)[C@@H](CCCN=C(N)N)C1=O
2 nM | 35 nM | 5 nM | 2 nM | 1.7 nM | 6 nM | – | – | CNC(=O)[C@H](Cc1ccc2ccccc2c1)N1CCN(C(=O)[C@@H](Cc2ccc(F)cc2)NC(=O)[C@H](Cc2cnc[nH]2)NC(C)=O)[C@@H](CCCN=C(N)N)C1=O
2 nM | 3.3 nM | 1.1 nM | 0.34 nM | 0.37 nM | 0.5 nM | – | – | CNC(=O)[C@H](Cc1ccc2ccccc2c1)N1CCN(C(=O)[C@@H](Cc2ccc(F)cc2)NC(=O)[C@H](CCC(N)=O)NC(C)=O)[C@@H](CCCN=C(N)N)C1=O
1 nM | 1 nM | 0.6 nM | 0.2 nM | 1.7 nM | 1 nM | – | – | CNC(=O)[C@H](Cc1ccc2ccccc2c1)N1CCN(C(=O)[C@@H](Cc2ccccc2)NC(=O)[C@H](Cc2ccc(O)cc2)NC(C)=O)[C@@H](CCCN=C(N)N)C1=O
313 nM | 352 nM | 6 nM | 1.6 nM | 104 nM | 163 nM | – | – | CNC(=O)[C@H](Cc1ccc2ccccc2c1)N1CCN(C(=O)[C@@H](Cc2ccc(F)cc2)NC(=O)C2Cc3ccccc3CN2)[C@@H](CCCN=C(N)N)C1=O (stereo partly specified)
